Experimental data reported in PMC12977544, “Phenotypic high-throughput screening identifies modulators of gut microbial choline metabolism” (mBio, 2026).
Converted amounts (≈) assume the structure as drawn.

Key:
[1] = tested on: E. coli MS 200-1; assay: TMA inhibition in bacterial whole cells (LC–MS/MS of d9-TMA from d9-choline); format: cell-based, Escherichia coli MS 200-1; conditions: 1 mM d9-choline in PBS, 75 min, 37°C, anaerobic
Procedure: (§1) For TMA inhibition assays, E. coli and P. mirabilis were grown in NCE medium supplemented with 20 mM choline chloride, A. hydrogenalis was grown in MEGA medium supplemented with 3 mM choline chloride, and C. sporogenes was grown in BHI medium supplemented with 20 mM of choline chloride to induce expression of the cut gene cluster. For MIC assays, all bacteria strains were grown in MEGA medium.
(§2) Compounds were stored as 10 mM DMSO stocks at –20°C and diluted in DMSO to prepare varying concentrations of inhibitors for testing. Bacteria were grown anaerobically overnight in media supplemented with choline as described above. Cells were pelleted and resuspended in PBS, and d9-choline chloride was added to a final concentration of 1 mM. The final OD600 of the PBS cell resuspensions is as follows: 0.4 (E. coli), 0.15–0.2 (P. mirabilis), 0.2 (C. sporogenes), and 0.4 (A. hydrogenalis). The resuspended cells were added to 96-well plates containing inhibitors (final concentration of 1% DMSO, with final inhibitor concentrations ranging between 0 and 325 µM). The plates were sealed and incubated for 75 min (or 90 min for P. mirabilis) at 37°C. Following incubation, the plates were removed from the anaerobic chamber and analyzed immediately or kept at –20°C until LC–MS/MS analysis. Each inhibitor concentration was tested in triplicate. EC50 values were calculated with GraphPad Prism by fitting the log(inhibitor) vs response—Variable slope (four-parameter) model for non-linear regression.
(§3) Samples were kept frozen until analysis and kept cold on ice during handling due to the volatility of TMA. Bacterial cell resuspensions in PBS were diluted 100-fold in LCMS-grade acetonitrile with 0.1% formic acid to lyse cells, precipitate proteins, and extract metabolites. Samples were centrifuged at 4,000 rpm for 10 min at 4°C to pellet proteins. The supernatants were then further diluted 20-fold in LCMS-grade acetonitrile with 0.1% formic acid, and the resulting solution was analyzed by LC–MS/MS.
(§4) LC–MS/MS analysis was performed on an Agilent 1290/6470 Triple Quadrupole LC–MS instrument (Agilent Technologies) using electrospray ionization. The mass spectrometer was operated in multiple reaction monitoring (MRM) mode with positive ionization monitoring. The precursor–product ion pairs used in MRM mode were as follows: m/z 69.1m/z → 49.1 (d9-TMA) and m/z 113.2 m/z → 69.1 (d9-choline). The capillary voltage was set to 4.0 kV, and the fragmentor voltage was set to 30 V (d9-TMA) and 115 V (d9-choline). The collision energy for the precursor–product ion pairs was set to 29 V (d9-TMA) and 21 V (d9-choline). MS^1 resolution was set to wide and MS^2 resolution to unit. The drying gas temperature was maintained at 250°C, with a flow rate of 11 L/min and a nebulizer pressure of 45 psi. The time filter width used was 0.07 min. The injection volume of all samples was 1 μL. Samples were injected onto InfinityLab Poroshell 120 (Agilent) HILIC columns (2.7 μm, 100 mm × 2.1 mm, 100 Å) preceded by InfinityLab Poroshell 120 HILIC guard columns (2.1 mm, 1.9µm UHPLC guard). The LC conditions on the binary pump were as follows: a gradient of 5–35% A increasing over 1.95 min (1.2 mL/min), a gradient of 35–5% A decreasing over 0.05 min (1.6 mL/min), and held at 5% A for 0.5 min (2 mL/min). […] Solvent A was 10 mM ammonium formate with 0.1% formic acid, and solvent B was acetonitrile with 0.1% formic acid. Data analysis was performed with Mass Hunter Workstation Data Acquisition and Qualitative Analysis software (Agilent Technologies).

[2] = tested on: Anaerococcus hydrogenalis DSM 7454; assay: as above; format: cell-based; conditions: 1 mM d9-choline in PBS, 75 min, 37°C, anaerobic
Procedure: as §1, §2, §3, §4

[3] = tested on: Clostridium sporogenes ATCC 15579; assay: as above; format: cell-based; conditions: 1 mM d9-choline in PBS, 75 min, 37°C, anaerobic
Procedure: as §1, §2, §3, §4

[4] = tested on: Proteus mirabilis ATCC 29906; assay: as above; format: cell-based; conditions: 1 mM d9-choline in PBS, 90 min, 37°C, anaerobic; for EC50: read-out: EC50 in whole cells, P. mirabilis (TMA inhibition)
Procedure: as §1, §2, §3, §4

[5] = tested on: choline-metabolizing gut bacteria (E. coli, P. mirabilis, C. sporogenes, A. hydrogenalis); assay: TMA inhibition across the panel of four choline-metabolizing gut bacteria; format: cell-based; conditions: compared with compound 6
From the text: We then used secondary assays to prioritize scaffolds that had broad-spectrum TMA inhibitory activity against additional choline-metabolizing gut bacteria. For this, we used Clostridium sporogenes ATCC 15579, a human gut isolate that is able to efficiently ferment choline in addition to other carbon sources, as well as Anaerococcus hydrogenalis DSM 7454 and Proteus mirabilis ATCC 29906, human gut isolates previously identified to metabolize choline in vitro ([61]). In particular, E. coli MS 200-1 and C. sporogenes ATCC 15579 have been used in gnotobiotic studies to investigate the effects of bacterial choline metabolism on the host and microbiome ([46], [61], [62]). These strains are representative of taxa frequently detected in humans ([63]) and, together with E. coli, are representative of the major phyla and genera in which TMA producers have been detected across human gut isolates ([48]). Importantly, this group of strains included both gram-positive and gram-negative bacteria. Gram-negative bacteria have an additional outer membrane layer and associated efflux pumps ([29]), which typically decreases small molecule permeability compared to gram-positive bacteria. It also included bacteria with cut gene cluster architectures that differ in the number and types of microcompartment proteins encoded and in the size of the CutC enzyme ([48]). We hypothesized that testing the inhibitors against multiple choline-utilizing gut bacteria would increase the likelihood of identifying compounds with broad-spectrum activity.
as §2

[6] = tested on: E. coli MS 200-1; assay: MIC in MEGA medium; format: cell-based, Escherichia coli MS 200-1; conditions: anaerobic, 37°C, 24 h, up to 200 µM
Procedure: as §1

[7] = tested on: Anaerococcus hydrogenalis DSM 7454; assay: MIC in MEGA medium; format: cell-based; conditions: anaerobic, 37°C, 24 h, up to 200 µM
Procedure: as §1

[8] = tested on: Bacteroides caccae ATCC 43185; assay: MIC in MEGA medium; format: cell-based; conditions: anaerobic, 37°C, 24 h, up to 200 µM; read-out: MIC in MEGA medium, B. caccae
Procedure: as §1

[9] = tested on: Bacteroides ovatus ATCC 8483; assay: MIC in MEGA medium; format: cell-based; conditions: anaerobic, 37°C, 24 h, up to 200 µM; read-out: MIC in MEGA medium, B. ovatus
Procedure: as §1

[10] = tested on: Bacteroides thetaiotaomicron VPI-5482; assay: MIC in MEGA medium; format: cell-based; conditions: anaerobic, 37°C, 24 h, up to 200 µM; read-out: MIC in MEGA medium, B. thetaiotaomicron
Procedure: as §1

[11] = tested on: Clostridium sporogenes ATCC 15579; assay: MIC in MEGA medium; format: cell-based; conditions: anaerobic, 37°C, 24 h, up to 200 µM
Procedure: as §1

[12] = tested on: Collinsella aerofaciens ATCC 25986; assay: MIC in MEGA medium; format: cell-based; conditions: anaerobic, 37°C, 24 h, up to 200 µM
Procedure: as §1

[13] = tested on: Eubacterium rectale ATCC 33656; assay: MIC in MEGA medium; format: cell-based; conditions: anaerobic, 37°C, 24 h, up to 200 µM; read-out: MIC in MEGA medium, E. rectale
Procedure: as §1

[14] = tested on: Proteus mirabilis ATCC 29906; assay: MIC in MEGA medium; format: cell-based; conditions: anaerobic, 37°C, 24 h, up to 200 µM; read-out: MIC in MEGA medium, P. mirabilis
Procedure: as §1

[15] = tested on: panel of commensal bacterial strains; assay: MIC against panel of nine gut commensal bacteria; conditions: of 9 bacterial strains tested
[16] = biological target: T1, purified CutC (choline trimethylamine-lyase) (Oleidesulfovibrio alaskensis, UniProt Q30W70); assay: In vitro CutC activity assay coupled to YADH/NADH (absorbance 340 nm); format: biochemical, Desulfovibrio desulfuricans G20; conditions: 5 nM CutC, 200 µM choline, 20°C, anaerobic
T1 construct: made in house
Procedure: To investigate if our compounds were inhibiting CutC directly, we tested their activity toward the purified enzyme. The activity of CutC was determined using a coupled enzyme assay, where the acetaldehyde product from the cleavage of choline to TMA is reduced to ethanol by yeast alcohol dehydrogenase (YADH) using nicotinamide adenine dinucleotide (NADH) as a cofactor. The consumption of NADH results in a change in absorption at 340 nm, and this rate of change of absorption was used to calculate the initial rates of reaction of CutC in the presence of varying concentrations of inhibitors ([14], [65]).
CutC and CutD enzymes from Desulfovibrio desulfuricans G20 were purified, CutC was activated by incubation with CutD, and the amount of glycyl radical installation was quantified as previously described ([15]). The IC50 of compounds was determined in an in vitro CutC activity assay, where CutC activity is coupled to the NADH-dependent enzymatic reduction of acetaldehyde by YADH ([15]). Briefly, assays were conducted in an anaerobic chamber (MBraun) under N2 atmosphere at 20°C. In 50 mM potassium phosphate buffer (pH 8.0, 50 mM KCl), 40 µM of CutD and 150 µM of sodium dithionite were incubated for 20 min before the addition of 200 µM of SAM and 20 µM of CutC monomer. The mixture was incubated for 1 h to activate the glycyl radical enzyme, after which the activated CutC mixture was diluted […] in 50 mM potassium phosphate buffer (pH 8.0, 50 mM KCl). A master mix containing 200 µM NADH, 0.4 µM YADH (Sigma), and the diluted CutC mixture (5 nM final concentration in assay) was prepared and aliquoted into 96-well plates (180 µL per well). Ten microliters of inhibitor or DMSO vehicle was added, followed by 10 µL of aqueous choline chloride solution (final concentration 200 µM). Absorbance was measured at 340 nm immediately after addition of all assay components, with measurements taken every 20 s for 10 min. Initial rates were calculated from absorbance measurements and fitted to Michaelis–Menten equation using nonlinear regression in GraphPad Prism 10 (v. 10.4.0). Background activity was subtracted using no substrate controls, and initial rates for each inhibitor concentration were normalized to no inhibitor controls. IC50 values were obtained by plotting normalized activity values against the logarithm of inhibitor concentration and fitting to a nonlinear regression model in GraphPad Prism 10 (v. 10.4.0).

T1 sequence (Q30W70 53-846): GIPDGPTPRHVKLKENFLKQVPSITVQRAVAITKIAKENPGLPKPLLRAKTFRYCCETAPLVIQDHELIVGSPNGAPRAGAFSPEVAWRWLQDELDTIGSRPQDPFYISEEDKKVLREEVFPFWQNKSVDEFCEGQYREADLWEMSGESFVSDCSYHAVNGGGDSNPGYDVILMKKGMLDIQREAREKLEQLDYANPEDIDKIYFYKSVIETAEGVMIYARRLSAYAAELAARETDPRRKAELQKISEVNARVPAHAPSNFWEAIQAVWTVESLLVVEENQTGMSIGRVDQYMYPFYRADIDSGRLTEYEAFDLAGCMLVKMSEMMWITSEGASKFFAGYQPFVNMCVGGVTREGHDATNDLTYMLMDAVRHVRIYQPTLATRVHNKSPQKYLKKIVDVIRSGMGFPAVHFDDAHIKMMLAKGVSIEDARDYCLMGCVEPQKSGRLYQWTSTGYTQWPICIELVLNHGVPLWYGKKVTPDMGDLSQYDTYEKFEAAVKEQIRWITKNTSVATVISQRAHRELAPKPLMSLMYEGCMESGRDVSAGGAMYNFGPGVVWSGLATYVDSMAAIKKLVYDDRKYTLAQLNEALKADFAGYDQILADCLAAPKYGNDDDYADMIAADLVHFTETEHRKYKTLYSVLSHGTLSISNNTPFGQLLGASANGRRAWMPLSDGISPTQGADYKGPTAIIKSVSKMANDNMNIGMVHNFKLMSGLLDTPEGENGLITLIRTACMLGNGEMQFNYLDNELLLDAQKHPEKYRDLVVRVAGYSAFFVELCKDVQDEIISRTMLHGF

Cc1ccc(-c2cc(C(=O)NCCCN3CCC(C)CC3)c[nH]2)cc1C [Compound 7]
EC50 [1]: 16 µM | EC50 [2]: 66 µM | EC50 [3]: 215 µM | EC50 [4]: 80 µM | Fold reduction of potency across all four choline-metabolizing bacteria [5]: about 2 fold

Cc1ccc(-c2cc(C(=O)NCCCN3CCC(C)CC3)c(C)n2Cc2ccccc2)cc1C [Compound 19]
EC50 [1]: 28 µM | EC50 [3]: 4 µM | MIC [6]: > 200 µM | MIC [7]: 25 µM (≈ 11.4 µg/mL) | MIC [8]: > 200 µM | MIC [9]: 25 µM (≈ 11.4 µg/mL) | MIC [10]: 50 µM (≈ 22.9 µg/mL) | MIC [11]: > 200 µM | MIC [12]: 6.25 µM (≈ 2.86 µg/mL) | MIC [13]: 25 µM (≈ 11.4 µg/mL) | MIC [14]: > 200 µM | Bacterial strains with growth inhibited (MIC < 200 µM) [15]: five out of 9

Cc1[nH]ccc1C(=O)NCCCN1CCC(C)CC1 [Compound 20]
EC50 [1]: > 125 µM | EC50 in whole cells, A. hydrogenalis (TMA inhibition) [2]: No inhibition at 312 | EC50 in whole cells, C. sporogenes (TMA inhibition) [3]: No inhibition at 312 | EC50 in whole cells, P. mirabilis (TMA inhibition) [4]: No inhibition at 312 | IC50 [16]: > 125 µM

Cc1cccc(-c2cc(C(=O)NCCCN3CCC(C)CC3)c(C)[nH]2)c1 [Compound 23]
EC50 [1]: 5 µM | EC50 [2]: 35 µM | EC50 [3]: 95 µM | EC50 [4]: 46 µM | IC50 [16]: 64 µM | MIC [6]: > 200 µM | MIC [7]: > 200 µM | MIC [8]: > 200 µM | MIC [9]: > 200 µM | MIC [10]: > 200 µM | MIC [11]: > 200 µM | MIC [12]: 200 µM (≈ 70.7 µg/mL) | MIC [13]: > 200 µM | MIC [14]: > 200 µM
